Among the test systems are DU-145 prostate; HCC-2998 colon; HCT-15 colon; KM12 colon; MDA-MB-231 breast; OVCAR-5 ovarian; PC-3 prostate; SK-MEL-2 melanoma; SK-MEL-5 melanoma; T-47D breast.
Holding throughout (assay): NCI-60 cell line screen, 48 h

Our source for the GI50 and TGI values is PubChem BioAssay (NCI).

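These data come from cells grown in 96-well plates and exposed to compound for 48 hours at five concentrations. GI50 = concentration required for 50% inhibition of growth. TGI denotes the concentration required for complete inhibition of growth.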 Bounds are passed on as bounds.

For `O=C(Nc1cc(C(F)(F)F)ccc1F)Nc1n[nH]c2ccccc12`, the GI50 in the test with DU-145 prostate, in the test on HCC-2998 colon, with HCT-15 colon, with KM12 colon, in the test on MDA-MB-231 breast and in the test on OVCAR-5 ovarian was above 100000 nM in each case. Also, the GI50 was above 100000 nM with PC-3 prostate, above 100000 nM with SK-MEL-2 melanoma, above 100000 nM in the test on SK-MEL-5 melanoma and 215 nM with T-47D breast. Moreover, the TGI in the test with DU-145 prostate, with HCC-2998 colon, in the test with HCT-15 colon, in the test with KM12 colon, in the test on MDA-MB-231 breast and in the test with OVCAR-5 ovarian was above 100 µM throughout. Moreover, the TGI in the test with PC-3 prostate was above 100 µM; with SK-MEL-2 melanoma it was above 100 µM; with SK-MEL-5 melanoma it was above 100000 nM; in the test with T-47D breast it was above 100 µM.

Consider `Cn1c(=O)cc2c3c(c(NCCCO)ccc31)C(=O)c1ccccc1-2`, for which the GI50 is 7620 nM in the test with DU-145 prostate; 5230 nM in the test on HCC-2998 colon; 3860 nM in the test with HCT-15 colon; 6340 nM in the test with KM12 colon; 4770 nM in the test with MDA-MB-231 breast; 32800 nM with OVCAR-5 ovarian. The GI50 in the test with PC-3 prostate was 3000 nM; in the test with SK-MEL-2 melanoma it was 6850 nM; with SK-MEL-5 melanoma it was 3970 nM; with T-47D breast it was 13000 nM. Besides, the TGI with DU-145 prostate, with HCC-2998 colon, in the test on HCT-15 colon, in the test with KM12 colon, in the test with MDA-MB-231 breast and with OVCAR-5 ovarian was above 100 µM each time. In addition, the TGI with PC-3 prostate was above 100 µM; in the test on SK-MEL-2 melanoma it was above 100 µM; in the test with SK-MEL-5 melanoma, above 100000 nM; in the test on T-47D breast, above 100 µM.

Regarding `CC(C)=CCc1c(O)cc(/C=C/c2cc(O)c3c(c2)C[C@@H]2C(C)(C)[C@H](O)[C@H](O)C[C@@]2(C)O3)cc1O`, the GI50 in the test with DU-145 prostate was 1960 nM; with HCC-2998 colon it was 1290 nM; with HCT-15 colon it was 1280 nM; with KM12 colon it was 590 nM; with MDA-MB-231 breast, 1660 nM; in the test with OVCAR-5 ovarian it was 1360 nM. The GI50 is 345 nM with PC-3 prostate, 44.4 nM with SK-MEL-2 melanoma, 1030 nM in the test on SK-MEL-5 melanoma and 1850 nM with T-47D breast. The TGI was above 10 µM in the test with DU-145 prostate; 4.17 µM in the test on HCC-2998 colon; above 10 µM in the test with HCT-15 colon; 4.11 µM in the test with KM12 colon; above 10 µM in the test with MDA-MB-231 breast; above 7.96 µM with OVCAR-5 ovarian. For the same compound, the TGI in the test with PC-3 prostate is above 10 µM; with SK-MEL-5 melanoma, 2320 nM; with T-47D breast, above 9.39 µM.

As for `CCOC(=O)CC1(O)C=CC(=O)C=C1`, the GI50 with DU-145 prostate was 2.54 µg/mL; in the test on HCC-2998 colon it was 2.56 µg/mL; in the test with HCT-15 colon, 0.313 µg/mL; with KM12 colon, 0.33 µg/mL; with MDA-MB-231 breast it was 0.443 µg/mL; in the test on OVCAR-5 ovarian it was 3.18 µg/mL. Besides, the GI50 in the test with PC-3 prostate was 0.348 µg/mL; with SK-MEL-2 melanoma, 2.33 µg/mL; in the test with SK-MEL-5 melanoma, 1.96 µg/mL; in the test with T-47D breast, 0.667 µg/mL. The TGI in the test with DU-145 prostate worked out at 7.75 µg/mL; with HCC-2998 colon, 4.68 µg/mL; in the test on HCT-15 colon, 0.596 µg/mL; in the test with KM12 colon, 0.738 µg/mL; in the test on MDA-MB-231 breast, 1.31 µg/mL; in the test with OVCAR-5 ovarian, 5.42 µg/mL. The TGI with PC-3 prostate stood at 0.921 µg/mL; in the test on SK-MEL-2 melanoma, 4.66 µg/mL; with SK-MEL-5 melanoma, 3.86 µg/mL; in the test on T-47D breast, 2.31 µg/mL.

Take `COC(=O)CCC(=O)c1c(C)[nH]c(/C=C2\N=C(c3ccc[nH]3)C=C2OC)c1C`: the GI50 is 344 nM in the test with DU-145 prostate; 1410 nM with HCC-2998 colon; 292 nM in the test with HCT-15 colon; 360 nM with KM12 colon; 385 nM in the test on MDA-MB-231 breast; 1480 nM in the test with OVCAR-5 ovarian. For the same compound, the GI50 with PC-3 prostate was 647 nM; in the test with SK-MEL-2 melanoma it was 349 nM; with SK-MEL-5 melanoma, 567 nM; in the test with T-47D breast, 931 nM. For the same compound, the TGI with DU-145 prostate came to 1.8 µM; in the test with HCC-2998 colon it was 5.84 µM; with HCT-15 colon, 1.89 µM; in the test on KM12 colon, 1.72 µM; with MDA-MB-231 breast, 2.64 µM; in the test with OVCAR-5 ovarian, 5.52 µM. Further, the TGI turned out to be 2.14 µM in the test on PC-3 prostate, 1.74 µM in the test on SK-MEL-2 melanoma, 1710 nM in the test on SK-MEL-5 melanoma and 4.09 µM with T-47D breast.

For the compound `CC(=O)OC1CC2CCC1(C)C2(C)C` (stereo not drawn), the TGI with DU-145 prostate, in the test with HCC-2998 colon, in the test with HCT-15 colon, in the test with KM12 colon, in the test on MDA-MB-231 breast and in the test with OVCAR-5 ovarian was above 100 µM throughout. The TGI with PC-3 prostate, in the test on SK-MEL-2 melanoma and with T-47D breast was above 100 µM each time.

On to `Cn1c(COC(=O)N2CCCCC2)nc2c(N3CCOCC3)nc(-c3ccccc3)nc21`, for which the GI50 with DU-145 prostate is 1010 nM; with HCC-2998 colon, 1580 nM; in the test with HCT-15 colon, 212 nM; in the test on KM12 colon, 1460 nM; in the test with MDA-MB-231 breast it was 1020 nM; in the test on OVCAR-5 ovarian, 1420 nM. The GI50 in the test with PC-3 prostate is 666 nM; in the test with SK-MEL-2 melanoma, 1640 nM; in the test on SK-MEL-5 melanoma, 1470 nM; in the test on T-47D breast, 1470 nM. Also, the TGI came to 2.31 µM with DU-145 prostate; 3.04 µM in the test with HCC-2998 colon; 0.509 µM with HCT-15 colon; 3.22 µM with KM12 colon; 2.27 µM with MDA-MB-231 breast; 2.97 µM in the test with OVCAR-5 ovarian. The TGI in the test with PC-3 prostate is 2.15 µM; in the test with SK-MEL-2 melanoma, 3.25 µM; in the test on SK-MEL-5 melanoma, 2790 nM; in the test on T-47D breast, 3.91 µM.

Regarding `O=C1C=C(Nc2ccccc2C(=O)CC(=O)C(=O)Nc2cccc(C(F)(F)F)c2)c2ccccc2C1=O`, the TGI is above 100 µM with DU-145 prostate; above 78 µM with HCC-2998 colon; above 100 µM with HCT-15 colon; above 95.9 µM in the test on KM12 colon; above 91.1 µM in the test with MDA-MB-231 breast; above 100 µM in the test on OVCAR-5 ovarian. The TGI was above 100 µM with PC-3 prostate, 44.5 µM in the test with SK-MEL-2 melanoma, 30800 nM in the test on SK-MEL-5 melanoma and above 100 µM with T-47D breast.
